# Measured values taken from article PMC6385203, “Mutations in the palm domain disrupt modulation of acid-sensing ion channel 1a currents by neuropeptides” (Scientific Reports, 2019).
# Numbering of substitutions follows the chain as printed. Peptide text beside a SMILES is read from it.
# Tests used:
# WT ASIC1a [1] = target: T1, WT ASIC1a (Homo sapiens, UniProt P78348); assay: Disappearance of FRRFa-induced Isust on washout, WT; type: cell-based; conditions: WT in direct comparison with N416C; washout after 50 μM FRRFa 45 s; n = 4
# T1 construct: expressed in transfected cells; host or cells: Xenopus laevis oocytes injected with cRNA
# T1 sequence (P78348 1-528 G212D): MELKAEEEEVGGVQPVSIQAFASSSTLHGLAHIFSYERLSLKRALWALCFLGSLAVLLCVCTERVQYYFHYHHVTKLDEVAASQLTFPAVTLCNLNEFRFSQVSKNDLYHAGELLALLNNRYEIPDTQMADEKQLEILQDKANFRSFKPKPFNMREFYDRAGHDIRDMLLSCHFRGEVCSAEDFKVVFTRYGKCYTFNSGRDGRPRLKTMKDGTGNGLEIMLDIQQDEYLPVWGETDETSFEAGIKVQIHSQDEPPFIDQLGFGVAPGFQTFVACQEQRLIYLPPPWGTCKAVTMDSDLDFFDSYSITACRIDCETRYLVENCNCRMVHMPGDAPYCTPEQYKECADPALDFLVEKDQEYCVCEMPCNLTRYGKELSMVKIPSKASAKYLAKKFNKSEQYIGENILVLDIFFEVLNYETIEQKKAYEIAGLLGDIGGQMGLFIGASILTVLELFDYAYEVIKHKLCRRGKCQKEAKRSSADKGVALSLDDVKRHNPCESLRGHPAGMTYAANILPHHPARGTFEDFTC
# Method: (§1) ASIC1a function was measured by two-electrode voltage-clamp after recombinant expression in Xenopus oocytes. The channels were activated by a pH5 stimulation solution from a conditioning solution of pH7.4. […] We measured the rate of FRRFa unbinding, as the disappearance of the sustained current after a 50-s incubation with 50 μM FRRFa, as 0.025 ± 0.005 s^−1 (n = 8, Fig. 2b). […] To determine the kinetics of FRRFa association on ASIC1a, we pre-applied the peptide at a concentration of 50 μM for different time periods in the conditioning solution and measured the sustained current fraction.
# (§2) Figure 2 FRRFa modulation of ASIC1a currents is only partially affected by acidic pocket mutations. (a) FRRFa concentration-response curve. Top, representative current traces. Bottom, Isust/Ipeak ratio induced by pH5 as a function of the FRRFa concentration (pre-applied during 45–50 s and present in pH5 solution), n = 7–11. (b) Time course of disappearance of the FRRFa-induced Isust. FRRFa at 50 μM was applied for 45 s, and current was measured once every minute during washout with FRRFa-free solution. Exponential fit shown as solid line (n = 4, error bars are smaller than the symbols). (c) Time course of appearance of Isust. Oocytes were exposed for various durations to 50 μM FRRFa in the pH7.4 conditioning solution, before activation of ASIC currents with pH5, including 50 μM FRRFa. […]
# WT ASIC1a [2] = target: T2, WT ASIC1a (Homo sapiens, UniProt P78348); assay: Time course of appearance of Isust (association), WT; type: cell-based; conditions: pH 7.4, 50 μM FRRFa pre-applied for different times at pH7.4, n = 4, mean ± SEM, read-out: association rate constant kon
# T2 construct: expressed in transfected cells; host or cells: Xenopus laevis oocytes injected with cRNA
# T2 sequence (P78348 1-528): T1 sequence (P78348 1-528 G212D) with D212G
# Method: as §1, §2
structure (smiles),measurement,setting,value
"N=C(N)NCCC[C@H](NC(=O)[C@H](CCCNC(=N)N)NC(=O)[C@@H](N)Cc1ccccc1)C(=O)N[C@@H](Cc1ccccc1)C(N)=O [FRRFa, Phe-Arg-Arg-Phe-amide] (H-FRRF-NH2)",koff,WT ASIC1a [1],0.029 ± 0.011 s⁻¹
same,kon,WT ASIC1a [2],162 ± 84 M⁻¹ s⁻¹
